Experimental data reported in patent publication US20240358692A1, “TREATMENT OF SCLERODERMA” (Aisa Pharma, Inc., priority 2023, published 2024).

Test system: participants with SSc-RP
Test: SHAQ - Standard Disability Index
Format: in vivo, human
Parameters: key to SHAQ Standard Disability Index, In-Clinic Visit (Day 12), Mean / SHAQ Standard Disability Index, In-Clinic Visit (Day 12), Median / SHAQ Standard Disability Index, Day 12, Mean / SHAQ Standard Disability Index, Day 12, Median: 0 = without any difficulty to 3 = unable to do
Details: for % change in Standard Disability Index: SHAQ, mITT Part A
Source text: The standard, validated, patient reported outcome measures tool for SSc patients, the Scleroderma Health Assessment Questionnaire (SHAQ), will be used to assess the participant qualify of life. Details are attached in the Appendix. The participant quality of life will be scored, and a disability index calculated for each questionnaire completed by the patient at Screening and each in-clinic visit. The absolute change in participant quality of life from baseline to the end of each dosing period will be calculated similar to frequency data as before.
The SHAQ is used to calculate a Disability Index to assess the participant qualify of life. The eight categories assessed by the Disability Index are 1) dressing and grooming, 2) arising, 3) eating, 4) walking, 5) hygiene, 6) reach, 7) grip, and 8) common daily activities. For each of these categories, patients report the amount of difficulty they have in performing two or three specific activities.
There are four possible responses for the Disability Index questions: • Without any difficulty=0 • With some difficulty=1 • With much difficulty=2 • Unable to do=3 • The highest score reported by the patient for any component question of the eight categories determines the score for that category. • If a component question is left blank or the response is too ambiguous to assign a score, then the score for that category is determined by the remaining completed question(s). • If all component questions are blank or if more than one answer is given, then follow up with the respondent is required. • If the respondent's mark is between the response columns, then move it to the closest one. If it's directly between the two, move it to the higher one.
This question results in a new set of category scores that are computed by adjusting the score for each category, if necessary, based on the patient's use of an aid or device or assistance for that category. If either devices and/or help from another person are checked for a category, the score is set to “2”, unless the score is already “3” (i.e., scores of “0” or “1” are increased to “2”). For example, if the highest score for the dressing category is “1”, and the patient says they use a device for dressing, the computed category score would be “2”. The sum of the computed categories scores is then calculated and divided by the number of categories answered. This gives a score in the 0 to 3 range.

[1] = Any Cilnidipine (N = 17), Day 12, PP Population, Part A
[2] = Cilnidipine 10 mg, SSc patients, PP, Part A
[3] = Cilnidipine 20 mg (N = 3), Day 12, Patients with Diagnosis of SSc, Modified ITT Population - Part A
[4] = Cilnidipine 20 mg, SSc patients, PP, Part A
[5] = Pooled Cilnidipine 20 mg and Cilnidipine 20 mg + Tadalafil 5 mg (N = 8), Day 12, PP Population, Part A
[6] = Pooled Cilnidipine (N = 8), Day 12, PP Population, Part A
[7] = pooled Cilnidipine 10 mg and Cilnidipine 10 mg + Tadalafil 5 mg
[8] = pooled Cilnidipine 20 mg and Cilnidipine 20 mg + Tadalafil 5 mg
[9] = pooled cilnidipine 10 mg and 20 mg arms (combination: + tadalafil 5 mg)

COCCOC(=O)C1=C(C)NC(C)=C(C(=O)OC/C=C/c2ccccc2)C1c1cccc([N+](=O)[O-])c1 (centres unmarked) [Cilnidipine]
SHAQ Standard Disability Index, Change from Baseline, Mean (SD) [1]: −0.041 (0.1990)
SHAQ Standard Disability Index, Change from Baseline, Median [1]: 0.000
SHAQ Standard Disability Index, Percent Change from Baseline, Median [1]: 0.00%
SHAQ Standard Disability Index, In-Clinic Visit (Day 12), Median (Cilnidipine 10 mg (N = 3), Patients with Diagnosis of SSc, Modified ITT Population - Part A): 1.125
SHAQ Standard Disability Index, Change from Baseline, Max [2]: 0.00
SHAQ Standard Disability Index, Change from Baseline, Min [2]: 0.00,
SHAQ Standard Disability Index, Change from Baseline, Q1 [2]: 0.000,
SHAQ Standard Disability Index, Change from Baseline, Q3 [2]: 0.000
SHAQ Standard Disability Index, Day 12, Max [2]: 1.50
SHAQ Standard Disability Index, Day 12, Mean [2]: 0.656
SHAQ Standard Disability Index, Day 12, Median [2]: 0.563
SHAQ Standard Disability Index, Day 12, Min [2]: 0.00,
SHAQ Standard Disability Index, Day 12, Q1 [2]: 0.000,
SHAQ Standard Disability Index, Day 12, Q3 [2]: 1.313
SHAQ Standard Disability Index, Percent Change from Baseline, Max [2]: 0.0
SHAQ Standard Disability Index, Percent Change from Baseline, Min [2]: 0.0,
SHAQ Standard Disability Index, Percent Change from Baseline, Q1 [2]: 0.00,
SHAQ Standard Disability Index, Percent Change from Baseline, Q3 [2]: 0.00
SHAQ Standard Disability Index, Change from Baseline, Mean [3]: −0.125
SHAQ Standard Disability Index, Change from Baseline, Median [3]: −0.125
SHAQ Standard Disability Index, Percent Change from Baseline, Mean [3]: −50.00%
SHAQ Standard Disability Index, Percent Change from Baseline, Median [3]: −50.00%
SHAQ Standard Disability Index, In-Clinic Visit (Day 12), Mean (Cilnidipine 20 mg (N = 3), Patients with Diagnosis of SSc, Modified ITT Population - Part A): 0.125
% change in Standard Disability Index (Cilnidipine 20 mg (n = 3)): −50%
SHAQ Standard Disability Index, Change from Baseline, Max [4]: 0.13
SHAQ Standard Disability Index, Change from Baseline, Mean [4]: −0.063
SHAQ Standard Disability Index, Change from Baseline, Median [4]: −0.063
SHAQ Standard Disability Index, Change from Baseline, Min [4]: −0.25,
SHAQ Standard Disability Index, Change from Baseline, Q1 [4]: −0.188,
SHAQ Standard Disability Index, Change from Baseline, Q3 [4]: 0.063
SHAQ Standard Disability Index, Day 12, Max [4]: 0.75
SHAQ Standard Disability Index, Day 12, Mean [4]: 0.281
SHAQ Standard Disability Index, Day 12, Median [4]: 0.188
SHAQ Standard Disability Index, Day 12, Min [4]: 0.00,
SHAQ Standard Disability Index, Day 12, Q1 [4]: 0.063,
SHAQ Standard Disability Index, Day 12, Q3 [4]: 0.500
SHAQ Standard Disability Index, Percent Change from Baseline, Max [4]: 20.0
SHAQ Standard Disability Index, Percent Change from Baseline, Mean [4]: −26.67
SHAQ Standard Disability Index, Percent Change from Baseline, Min [4]: −66.7,
SHAQ Standard Disability Index, Percent Change from Baseline, Q1 [4]: −66.67,
SHAQ Standard Disability Index, Percent Change from Baseline, Q3 [4]: 20.00
SHAQ Standard Disability Index, Change from Baseline, Mean [5]: −0.065
SHAQ Standard Disability Index, Change from Baseline, Median [5]: 0.000
SHAQ Standard Disability Index, Change from Baseline, Mean (SD) [6]: −0.031 (0.1108)
SHAQ Standard Disability Index, In-Clinic Visit (Day 12), Mean (SD) [6]: 0.469 (0.5853)
SHAQ Standard Disability Index, Percent Change from Baseline, Mean (SD) [6]: −16.00 (34.189) %
% change in Standard Disability Index (Pooled Cilnidipine (n = 7)): −25%
% Δ from baseline, standard disability mean (Pooled cilnidipine (n=4)): −25%
Standard Disability Index Change from Baseline Max [7]: 0.38
Standard Disability Index Change from Baseline Mean [7]: −0.021
Standard Disability Index Change from Baseline Median [7]: 0.000
Standard Disability Index Change from Baseline Min [7]: −0.31,
Standard Disability Index Change from Baseline Q3 [7]: 0.000
Standard Disability Index Day 12 Max [7]: 1.50
Standard Disability Index Day 12 Min [7]: 0.00,
Standard Disability Index Day 12 Q1 [7]: 0.188,
Standard Disability Index Day 12 Q3 [7]: 1.125
Standard Disability Index Percent Change from Baseline Max [7]: 150.0%
Standard Disability Index Percent Change from Baseline Mean [7]: 7.50%
Standard Disability Index Percent Change from Baseline Median [7]: 0.00%
Standard Disability Index Percent Change from Baseline Min [7]: −62.5, %
Standard Disability Index Percent Change from Baseline Q1 [7]: −25.00, %
Standard Disability Index Percent Change from Baseline Q3 [7]: 0.00%
Standard Disability Index Change from Baseline Max [8]: 0.13
Standard Disability Index Change from Baseline Mean [8]: −0.092
Standard Disability Index Change from Baseline Median [8]: 0.000
Standard Disability Index Change from Baseline Min [8]: −0.52,
Standard Disability Index Change from Baseline Q1 [8]: −0.250,
Standard Disability Index Day 12 Max [8]: 1.75
Standard Disability Index Day 12 Median [8]: 0.250
Standard Disability Index Day 12 Min [8]: 0.00,
Standard Disability Index Day 12 Q1 [8]: 0.000,
Standard Disability Index Day 12 Q3 [8]: 0.857
Standard Disability Index Percent Change from Baseline Max [8]: 100.0%
Standard Disability Index Percent Change from Baseline Median [8]: −33.33%
Standard Disability Index Percent Change from Baseline Min [8]: −66.7, %
Standard Disability Index Percent Change from Baseline Q1 [8]: −37.66, %
Standard Disability Index Percent Change from Baseline Q3 [8]: 7.69%
Standard Disability Index Change from Baseline Max [9]: 0.00
Standard Disability Index Change from Baseline Mean [9]: −0.054
Standard Disability Index Change from Baseline Median [9]: 0.000
Standard Disability Index Change from Baseline Min [9]: −0.25,
Standard Disability Index Change from Baseline Q3 [9]: 0.000
Standard Disability Index Day 12 Max [9]: 1.50
Standard Disability Index Day 12 Median [9]: 0.125
Standard Disability Index Day 12 Min [9]: 0.00,
Standard Disability Index Day 12 Q1 [9]: 0.000,
Standard Disability Index Percent Change from Baseline Max [9]: 0.0%
Standard Disability Index Percent Change from Baseline Mean [9]: −25.00%
Standard Disability Index Percent Change from Baseline Min [9]: −66.7, %
Standard Disability Index Percent Change from Baseline Q1 [9]: −50.00, %
Standard Disability Index Percent Change from Baseline Q3 [9]: 0.00%
